Experimental data as given in patent US20120225062A1 (priority 2011, published 2012).

Experiments:
Pim 3 = Pim 3 (Homo sapiens, UniProt Q86V86); assay: Pim 3 AlphaScreen assay (high ATP)
Procedure: (§1) The activity of Pim 1, Pim 2, & Pim 3 is measured using a homogeneous bead based system quantifying the amount of phosphorylated peptide substrate resulting from kinase-catalyzed phosphoryl transfer to a peptide substrate. Compounds to be tested are dissolved in 100% DMSO and directly distributed to a white 384-well plate at 0.25 μl per well. […] This is followed by the addition of 5 μl/well of Pim 1, Pim 2 or Pim 3 kinase in assay buffer (concentrations described below). Final assay concentrations (described below) are in 2.5% DMSO. The reactions are performed for ˜2 hours, then stopped by the addition of 10 μl of 0.75 μg/ml anti-phospho Ser/Thr antibody (Cell Signaling), 10 μg/ml Protein A AlphaScreen beads (Perkin Elmer), and 10 μg/ml streptavidin coated AlphaScreen beads in stop/detection buffer (50 mM EDTA, 95 mM Tris, pH=7.5, 0.01% Tween-20). The stopped reactions are incubated overnight in the dark. The phosphorylated peptide is detected via an oxygen anion initiated chemiluminescence/fluorescence cascade using the Envision plate reader (Perkin Elmer).

[1] = tested on: KMS11 (human myeloma cell line); assay: Cell Proliferation Assay (CellTiter-Glo, 3 days); type: cell-based; settings: KMS-11, 72 h, KMS11-luc cells
Procedure: KMS11 (human myeloma cell line), were cultured in IMDM supplemented with 10% FBS, sodium pyruvate and antibiotics. Cells were plated in the same medium at a density of 2000 cells per well into 96 well tissue culture plates, with outside wells vacant, on the day of assay.
Test compounds supplied in DMSO were diluted into DMSO at 500 times the desired final concentrations before dilution into culture media to 2 times final concentrations. Equal volumes of 2× compounds were added to the cells in 96 well plates and incubated at 37° C. for 3 days.
After 3 days plates were equilibrated to room temperature and equal volume of CellTiter-Glow Reagent (Promega) was added to the culture wells. The plates were agitated briefly and luminescent signal was measured with luminometer.
Using the procedures of Cell Proliferation Assay, the EC50 concentrations of compounds of the examples were determined in KMS11 cells as shown in Table 4.

Pim 1 = Pim 1 (Homo sapiens, UniProt P11309); assay: Pim 1 AlphaScreen assay (high ATP)
Sequence of Pim 1 (P11309 whole entry): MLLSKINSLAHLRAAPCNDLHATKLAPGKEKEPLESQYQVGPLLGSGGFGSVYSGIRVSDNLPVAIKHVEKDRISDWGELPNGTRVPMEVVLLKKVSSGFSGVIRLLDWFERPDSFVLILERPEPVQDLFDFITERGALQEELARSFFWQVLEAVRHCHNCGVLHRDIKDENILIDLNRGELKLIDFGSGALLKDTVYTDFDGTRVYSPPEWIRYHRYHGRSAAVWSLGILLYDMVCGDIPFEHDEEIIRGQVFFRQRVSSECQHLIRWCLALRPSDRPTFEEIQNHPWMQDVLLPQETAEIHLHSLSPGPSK
Procedure: as §1

Pim 2 = Pim 2 (Homo sapiens, UniProt Q9P1W9); assay: Pim 2 AlphaScreen assay (high ATP)
Sequence of Pim 2 (Q9P1W9 whole entry): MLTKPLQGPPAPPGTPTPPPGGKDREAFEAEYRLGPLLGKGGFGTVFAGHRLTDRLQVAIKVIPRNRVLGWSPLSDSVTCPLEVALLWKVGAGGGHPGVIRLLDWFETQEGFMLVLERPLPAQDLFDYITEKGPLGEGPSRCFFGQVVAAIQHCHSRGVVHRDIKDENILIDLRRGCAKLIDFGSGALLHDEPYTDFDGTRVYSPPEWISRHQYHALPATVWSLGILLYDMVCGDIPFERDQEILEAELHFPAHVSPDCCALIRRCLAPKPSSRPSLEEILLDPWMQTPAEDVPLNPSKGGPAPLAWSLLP

Structure (SMILES) | IC50 (Pim 3) [nM] | EC50 [1] [nM] | IC50 (Pim 1) [nM] | IC50 (Pim 2) [nM]
C[C@H]1CN(c2ccncc2NC(=O)c2ccc(F)c(-c3c(F)cc(C4(O)CCC4)cc3F)n2)C[C@@H](N)[C@@H]1O [Example 76, N-(4-((3R,4R,5S)-3-amino-4-hydroxy-5-methylpiperidin-1-yl)pyridin-3-yl)-6-(2,6-difluoro-4-(1-hydroxycyclobutyl)phenyl)-5-fluoropicolinamide] | 0.22 | 9 | 0.01 | 0.71
CCOc1cc(F)c(-c2nc(C(=O)Nc3cnccc3[C@H]3C[C@@H](N)[C@H](O)[C@@H](C)C3)ccc2F)c(F)c1 [Example 226, N-(4-((1R,3R,4R,5S)-3-amino-4-hydroxy-5-methylcyclohexyl)pyridin-3-yl)-6-(4-ethoxy-2,6-difluorophenyl)-5-fluoropicolinamide] | 0.75 | – | 0.04 | 3.51
C[C@H]1CN(c2ccncc2NC(=O)c2ccc(F)c(-c3c(F)cc(OC4CCOCC4)cc3F)n2)C[C@@H](N)[C@@H]1O [Example 116, N-(4-((3R,4R,5S)-3-amino-4-hydroxy-5-methylpiperidin-1-yl)pyridin-3-yl)-6-(2,6-difluoro-4-(tetrahydro-2H-pyran-4-yloxy)phenyl)-5-fluoropicolinamide] | 0.2 | – | 0.01 | 0.58
C[C@H]1CN(c2ccncc2NC(=O)c2nc(-c3c(F)cc(OC4CCOCC4)cc3F)c(F)cc2N)C[C@@H](N)[C@@H]1O [Example 115, 3-amino-N-(4-((3R,4R,5S)-3-amino-4-hydroxy-5-methylpiperidin-1-yl)pyridin-3-yl)-6-(2,6-difluoro-4-(tetrahydro-2H-pyran-4-yloxy)phenyl)-5-fluoropicolinamide] | 0.12 | – | 0.01 | 0.66
CC(C)[C@@H]1C[C@H](N)C[C@H](c2ccncc2NC(=O)c2ccc(F)c(-c3c(F)cc(OC4CCOCC4)cc3F)n2)C1 [Example 110, N-(4-((1R,3S,5S)-3-amino-5-isopropylcyclohexyl)pyridin-3-yl)-6-(2,6-difluoro-4-(tetrahydro-2H-pyran-4-yloxy)phenyl)-5-fluoropicolinamide] | 0.25 | – | 0.01 | 0.95
C[C@H]1CN(c2ccncc2NC(=O)c2ccc(F)c(-c3c(F)cc(OC4COC4)cc3F)n2)C[C@@H](N)[C@@H]1O [Example 117, N-(4-((3R,4R,5S)-3-amino-4-hydroxy-5-methylpiperidin-1-yl)pyridin-3-yl)-6-(2,6-difluoro-4-(oxetan-3-yloxy)phenyl)-5-fluoropicolinamide] | 0.16 | – | 0.01 | 0.65
C[C@H]1CN(c2ccncc2NC(=O)c2ccc(F)c(-c3c(F)ccc(OCCO)c3F)n2)C[C@@H](N)[C@@H]1O [Example 31, N-(4-((3R,4R,5S)-3-amino-4-hydroxy-5-methylpiperidin-1-yl)pyridin-3-yl)-6-(2,6-difluoro-3-(2-hydroxyethoxy)phenyl)-5-fluoropicolinamide] | – | 12 | – | 1.36
CC(C)[C@@H]1C[C@H](N)C[C@H](c2ccncc2NC(=O)c2ccc(F)c(-c3c(F)cc(C4(O)COC4)cc3F)n2)C1 [Example 111, N-(4-((1R,3S,5S)-3-amino-5-isopropylcyclohexyl)pyridin-3-yl)-6-(2,6-difluoro-4-(3-hydroxyoxetan-3-yl)phenyl)-5-fluoropicolinamide] | 0.61 | – | 0.01 | 0.76
C[C@H]1C[C@@H](c2ccncc2NC(=O)c2ccc(F)c(-c3c(F)cc(C4CC4)cc3F)n2)C[C@@H](N)[C@@H]1O [Example 72, N-(4-((1R,3R,4R,5S)-3-amino-4-hydroxy-5-methylcyclohexyl)pyridin-3-yl)-6-(4-cyclopropyl-2,6-difluorophenyl)-5-fluoropicolinamide] | – | 139 | – | –
N[C@H]1CCC[C@@H](c2ccncc2NC(=O)c2ccc(F)c(-c3c(F)cc(C4(O)CCCC4)cc3F)n2)C1 [Example 162, N-(4-((1R,3S)-3-aminocyclohexyl)pyridin-3-yl)-6-(2,6-difluoro-4-(1-hydroxycyclopentyl)phenyl)-5-fluoropicolinamide] | – | 122 | – | –

Second part, the molecule after the results:

IC50 (Pim 3) [nM] | EC50 [1] [nM] | IC50 (Pim 1) [nM] | IC50 (Pim 2) [nM] | Structure (SMILES)
1.13 | 25 | 0.01 | 1.6 | C[C@@H]1C[C@H](N)C[C@H](c2ccncc2NC(=O)c2ccc(F)c(-c3c(F)cc(C4COC4)cc3F)n2)C1 [Example 68, N-(4-((1R,3S,5S)-3-amino-5-methylcyclohexyl)pyridin-3-yl)-6-(2,6-difluoro-4-(oxetan-3-yl)phenyl)-5-fluoropicolinamide]
1.29 | – | 0.04 | 1.37 | COC(C)(C)c1cc(F)c(-c2nc(C(=O)Nc3cnccc3[C@H]3C[C@@H](N)[C@H](O)[C@@H](C)C3)c(N)cc2F)c(F)c1 [Example 114, 3-amino-N-(4-((1R,3R,4R,5S)-3-amino-4-hydroxy-5-methylcyclohexyl)pyridin-3-yl)-6-(2,6-difluoro-4-(2-methoxypropan-2-yl)phenyl)-5-fluoropicolinamide]
– | 31 | – | 1.46 | C[C@H]1C[C@@H](c2ccncc2NC(=O)c2nc(-c3c(F)cc(OC4CCOCC4)cc3F)c(F)cc2N)C[C@@H](N)[C@@H]1O [Example 87, 3-amino-N-(4-((1R,3R,4R,5S)-3-amino-4-hydroxy-5-methylcyclohexyl)pyridin-3-yl)-6-(2,6-difluoro-4-(tetrahydro-2H-pyran-4-yloxy)phenyl)-5-fluoropicolinamide]
– | 55 | – | 2.61 | C[C@@H]1C[C@H](N)C[C@H](c2ccncc2NC(=O)c2ccc(F)c(-c3c(F)cc(CN4CCCC4=O)cc3F)n2)C1 [Example 144, N-(4-((1R,3S,5S)-3-amino-5-methylcyclohexyl)pyridin-3-yl)-6-(2,6-difluoro-4-((2-oxopyrrolidin-1-yl)methyl)phenyl)-5-fluoropicolinamide]
– | 158 | – | 0.93 | CC(C)[C@@H]1C[C@H](N)C[C@H](c2ccncc2NC(=O)c2ccc(F)c(-c3c(F)cc(OC4COC4)cc3F)n2)C1 [Example 183, N-(4-((1R,3S,5S)-3-amino-5-isopropylcyclohexyl)pyridin-3-yl)-6-(2,6-difluoro-4-(oxetan-3-yloxy)phenyl)-5-fluoropicolinamide]
– | 24 | 0.02 | 2.42 | C[C@@H]1C[C@H](N)C[C@H](c2ccncc2NC(=O)c2ccc(F)c(-c3c(F)cc(C4(O)COC4)cc3F)n2)C1 [Example 55, N-(4-((1R,3S,5S)-3-amino-5-methylcyclohexyl)pyridin-3-yl)-6-(2,6-difluoro-4-(3-hydroxyoxetan-3-yl)phenyl)-5-fluoropicolinamide]
0.21 | – | 0.01 | 0.48 | COC1(c2cc(F)c(-c3nc(C(=O)Nc4cnccc4N4C[C@@H](N)[C@H](O)[C@@H](C)C4)c(N)cc3F)c(F)c2)COC1 [Example 112, 3-amino-N-(4-((3R,4R,5S)-3-amino-4-hydroxy-5-methylpiperidin-1-yl)pyridin-3-yl)-6-(2,6-difluoro-4-(3-methoxyoxetan-3-yl)phenyl)-5-fluoropicolinamide]
0.73 | – | 0.02 | 1.51 | COC(C)(C)c1cc(F)c(-c2nc(C(=O)Nc3cnccc3[C@@H]3C[C@H](C)C[C@H](N)C3)c(N)cc2F)c(F)c1 [Example 113, 3-amino-N-(4-((1R,3S,5S)-3-amino-5-methylcyclohexyl)pyridin-3-yl)-6-(2,6-difluoro-4-(2-methoxypropan-2-yl)phenyl)-5-fluoropicolinamide]
– | 285 | 0.02 | 3.74 | C[C@@H]1C[C@H](N)C[C@H](c2ccncc2NC(=O)c2ccc(F)c(-c3c(F)cc(C4=CCCC4)cc3F)n2)C1 [Example 160]
0.29 | – | 0.01 | 1.08 | COCCOc1cc(F)c(-c2nc(C(=O)Nc3cnccc3[C@@H]3C[C@H](C)C[C@H](N)C3)c(N)cc2F)c(F)c1 [Example 118, 3-amino-N-(4-((1R,3S,5S)-3-amino-5-methylcyclohexyl)pyridin-3-yl)-6-(2,6-difluoro-4-(2-methoxyethoxy)phenyl)-5-fluoropicolinamide]
0.51 | – | 0.02 | 1.78 | CCOc1cc(F)c(-c2nc(C(=O)Nc3cnccc3[C@@H]3C[C@H](C)C[C@H](N)C3)ccc2F)c(F)c1 [Example 225, N-(4-((1R,3S,5S)-3-amino-5-methylcyclohexyl)pyridin-3-yl)-6-(4-ethoxy-2,6-difluorophenyl)-5-fluoropicolinamide]
1.45 | – | 0.06 | 8.92 | CCOc1ccc(F)c(-c2nc(C(=O)Nc3cnccc3[C@@H]3C[C@H](C)C[C@H](N)C3)ccc2F)c1F [Example 213, N-(4-((1R,3S,5S)-3-amino-5-methylcyclohexyl)pyridin-3-yl)-6-(3-ethoxy-2,6-difluorophenyl)-5-fluoropicolinamide]
0.57 | – | 0.01 | 2.99 | C[C@@H]1C[C@H](N)C[C@H](c2ccncc2NC(=O)c2ccc(F)c(-c3c(F)cc(OC[C@H](O)CO)cc3F)n2)C1 [Example 2, N-(4-((1R,3S,5S)-3-amino-5-methylcyclohexyl)pyridin-3-yl)-6-(4-((R)-2,3-dihydroxypropoxy)-2,6-difluorophenyl)-5-fluoropicolinamide]
